Results reported in patent US6482610B1, “Method for producing agents for treating tumor diseases and for immunosuppression” (Forschungszentrum Karlsruhe GmbH, priority 1998, dated 2002).
Where two headings read alike, the source gives them in different places.

Assays:
[1] = system: cyclin E-associated histone H1 kinase; test: Cyclin E-dependent histone H1 kinase activity, immune complex kinase assay; assay type: cell-based, rat; conditions: 5 L cells, 24-hour treatment, FIG. 2B
Description: (§1) After it had been found by introductory experiments that the effect of dioxin on the cell cycle required gene expression which was continuous and induced, experiments were carried out to investigate the Ah receptor-dependent, cell cycle-regulating genes by characterizing biochemical changes in the course of the cell cycle (Lees, E., Curr. Opin. Cell Biol. 7, 773 (1995); Morgan, D. O., Nature 374, 131 (1995). The levels of cyclins D and E, which are involved in the G1-S transition in the cell cycle, as well as their associated cyclin-dependent kinases (cdks 2 and 4), were not reduced by dioxin treatment (see FIG. 2A). […]
(§2) Biochemical properties of G1-phase cyclin/cdk complexes were analysed using 30-60%-confluent, asynchronous cell cultures which, apart from those in section E, had been subjected to a 24-hour treatment with TCDD or 0.1% of the DMSO solvent. The quantities of G1-phase cyclins D1, D2, D3 and E, and also cdks 2 and 4(A) were determined by Western blot in extracts which had been prepared by lysis using a mild detergent (Matsushime, H. et al. Mol. Cell Biol. 14, 2066 (1994)). Cyclin E-dependent histone H1 kinase activity (B) was measured in an immune complex kinase assay (Matsushime, loc. cit.) following precipitation with an anti-cyclin E antibody (lanes 1 and 2) or a corresponding anti-AP-2 antibody as the negative control (lanes 3 and 4). […]

[2] = system: 5 L cells; conditions: non-electroporated cells (Weiss, loc. cit.); cited from earlier work
[3] = system: p27Kip1 associated with cyclin E; test: Immunocoprecipitation with anti-cyclin E antibody, Western blot of p27Kip1; assay type: cell-based, rat; conditions: 5 L cells, immunocoprecipitation analysis, FIG. 2D
Description: as §1, §2

[4] = system: 5 L cells; test: Cell cycle distribution by flow cytometry in transfected 5 L cells; assay type: cell-based, rat
Text: Genetic indications of a causal role for Kip1 induction in dioxin-induced cell cycle retardation were obtained by transiently expressing a Kip1 antisense RNA in order to inactivate Kip1. Coexpression of green fluorescent protein (GFP, Heim, A. B. et al., Nature 373, 663 (1997)) enabled flow cytometry to be used to detect efficiently transfected cells (FIG. 3A). […] When Kip1 antisense RNA was expressed together with GFP, the TCDD effect on cell cycle distribution was interrupted in the efficiently transfected subpopulation of cells (FIG. 3B, third row). In the non-transfected subpopulation from the same cell culture, TCDD retarded the progress of the cell cycle in the expected manner (FIG. 3B, last row). In this context, it is to be noted that the electroporation reduced sensitivity to dioxin such that the observed effects on the cell cycle were less pronounced than in non-transfected cells, for example 1.5-2-fold as compared with 3-4-fold in non-electroporated cells (Weiss, loc. cit.).
5 L cells were transiently cotransfected with expression vectors for a Kip1 antisence RNA and GFP (part B, lower panel) or with the empty expression vector and GFP (part B, upper panel). 32 h after the transfection, the cells were treated with 1 nM TCDD or 0.1% DMSO solvent, as the control, and harvested, for the analysis by flow cytometry 18 h later, using trypsin. (A) The GFP-expressing subpopulation of transfected cells (thick line) was identified by means of a high green fluorescence (GFP) as compared with untransfected cells (thin line). (B) Cell cycle profiles were determined by staining with H33258 and analysed individually for efficiently transfected (approx. 5%), green-fluorescing subpopulations (rows 1 and 3) and untransfected subpopulations (rows 2 and 4) in the presence of 1 nM TCDD (right-hand panels) or 0.1% DMSO solvent (left-hand panels).

[5] = system: Kip1 mRNA; test: Kip1 mRNA by Northern blot in 5 L cells; assay type: cell-based, rat
[6] = system: thymocytes; test: Thymocyte proliferation and cell cycle distribution in foetal thymus organ culture; assay type: cell-based, mice; conditions: for % in G2/S: 2 days of culture, mean ± S.D., 3 experiments
Text: (§3) An important target for dioxin toxicity is the thymus, which suffers an AhR-dependent atrophy (Poland, A. et al., Annu. Rev. Pharmacol. Toxicol. 22, 517 (1982); Fernandez-Salguero, P. et al., Science 268, 722 (1995)). Foetal thymus organ culture (FTOC) provides a useful model for studying dioxin activities (Lai, Z. W. et al., Mol. Pharmacol. 52, 30 (1997), and the literature references which are cited therein). After only 2 days of FTOC, a 3-fold induction of Kip1 protein was found in thymocytes which had been prepared from TCDD-treated cultures as compared with cultures which had only been exposed to the solvent (FIG. 4A). This was accompanied by a decrease in the proliferation of the thymocytes, as shown by a reduced incorporation of ^3H-thymidine into the thymocyte DNA (75±7%) and a drop, from 32±3% down to 24±1%, in the number of cells in the S and G2 phases of the cell cycle (a representative example from 3 similar experiments is shown in FIG. 4B). While the proliferation rate in all the early thymocyte subpopulations was reduced independently of the status of CD4 or CD8 expression (Table 1), the effect was more strongly pronounced in the predominantly immature, double negative subpopulation and in a small CD4low/+/CD8-subpopulation.
(§4) Foetal thymus glands from C57B16 mice were explanted after 14.5 days of pregnancy and cultured for 2 days in the presence of 1 nM TCDD or 0.1% DMSO solvent prior to preparing thymocytes. p27Kip1 protein (A) was determined by Western blot in 10^5 thymocytes. Uniform loading of the gel was ensured by probing the blots once again with an Erk1 antibody (one of three representative examples is shown). The cell cycle distribution of the total lymphocyte population (B) was determined by means of flow cytometry following DNA staining with H33258 bisbenzimide dye.
Thymocytes from foetal thymus glands were collected after 2 days of culture in the presence or absence of TCDD and analysed for their cell cycle distribution. The values are mean values±S.D. from 3 independent experiments.

[7] = system: p27Kip1; test: p27Kip1 protein level by Western blot in 5 L cells and BP8 derivatives; assay type: cell-based, rat
Description: After it had been found by introductory experiments that the effect of dioxin on the cell cycle required gene expression which was continuous and induced, experiments were carried out to investigate the Ah receptor-dependent, cell cycle-regulating genes by characterizing biochemical changes in the course of the cell cycle (Lees, E., Curr. Opin. Cell Biol. 7, 773 (1995); Morgan, D. O., Nature 374, 131 (1995). The levels of cyclins D and E, which are involved in the G1-S transition in the cell cycle, as well as their associated cyclin-dependent kinases (cdks 2 and 4), were not reduced by dioxin treatment (see FIG. 2A). The levels of cyclins D2 and D3 were even raised, presumably because the cells are frozen in a state which is per se associated with a high level of these cyclins. […] The expected accumulation of a slowly migrating form of cdk2, which is presumably not phosphorylated at Thr-160 (Polyak, loc. cit.), was found in the same precipitates (FIG. 2D). […]
as §2, with “4). The levels of p27Kip1 protein (C) were determined by Western blot in whole-cell extracts prepared from TCDD-treated cultures of AhR-expressing 5 L wild-type cells, their AhR-deficient BP8AhR-derivatives and BP8 cells which were expressing AhR ectopically (BP8AhR+) (Weiss, loc. cit.).” for “4).”

[8] = system: p27Kip1; test: p27Kip1 protein by Western blot in foetal thymus organ culture thymocytes; assay type: cell-based, mice; conditions: 2 days of FTOC, 1 nM, compared with solvent cultures
Text: as §3, with “While the proliferation rate in all the early thymocyte subpopulations was reduced independently of the status of CD4 or CD8 expression (Table 1), the effect was more strongly pronounced in the predominantly immature, double negative subpopulation and in a small CD4low/+/CD8-subpopulation.” left out
as §4, with “Uniform loading of the gel was ensured by probing the blots once again with an Erk1 antibody (one of three representative examples is shown).” left out

[9] = system: cyclins D1, D2, D3 and E, cdks 2 and 4; test: Western blot of G1-phase cyclins and cdks in 5 L cells; assay type: cell-based, rat; conditions: 24-hour treatment, FIG. 2A
Description: as §1, §2

[10] = system: p18-Ink and p21-Cip1; test: Levels of other cdk inhibitors in 5 L cells; assay type: cell-based, rat
Description: After it had been found by introductory experiments that the effect of dioxin on the cell cycle required gene expression which was continuous and induced, experiments were carried out to investigate the Ah receptor-dependent, cell cycle-regulating genes by characterizing biochemical changes in the course of the cell cycle (Lees, E., Curr. Opin. Cell Biol. 7, 773 (1995); Morgan, D. O., Nature 374, 131 (1995). The levels of cyclins D and E, which are involved in the G1-S transition in the cell cycle, as well as their associated cyclin-dependent kinases (cdks 2 and 4), were not reduced by dioxin treatment (see FIG. 2A). The levels of cyclins D2 and D3 were even raised, presumably because the cells are frozen in a state which is per se associated with a high level of these cyclins. […] The expected accumulation of a slowly migrating form of cdk2, which is presumably not phosphorylated at Thr-160 (Polyak, loc. cit.), was found in the same precipitates (FIG. 2D). […] The rise in the level of the p27Kip1 protein was accompanied by a fourfold induction of Kip1 mRNA (FIG. 2E, lanes 1 and 2).

[11] = system: 5 L cells; test: Cell cycle progress by Rb protein phosphorylation, Western blot, synchronised 5 L cells; assay type: cell-based, rat; conditions: 1 nM, 2 h before analysis, 8 h after serum stimulation, FIG. 1
Description: 5 L cells were frozen in their growth by being fasted in serum-free medium for 24 h and synchronously released from the block in the cell cycle by the addition of serum. The progress in the cell cycle was monitored by Western blot analysis, by determining the accumulation of phosphorylated Rb protein (upper arrow) in relation to hypophosphorylated Rb protein (lower arrow) 8 h after stimulating with the serum. 2 h before the analysis, the cells were treated with 1 nM TCDD, the transcription inhibitor actinomycin D (5 μg/ml) or both these compounds. The culture conditions have been described previously (Weiss, C. et al. Exp. Cell Res. 226, 154 (1996)), and extracts were prepared by lysing the cells in denaturing SDS sample buffer.

Clc1cc2c(cc1Cl)Oc1cc(Cl)c(Cl)cc1O2 [TCDD]
cyclin E-associated histone H1 kinase activity [1]: substantially reduced
observed effects on the cell cycle [2]: 3-4 fold
quantities of p27Kip1 associated with cyclin E [3]: increased quantities
relative number of cells in S/G2 ([4]; GFP with empty expression vector, transfected and non-transfected cells, 1 nM, 18 h): reduced
TCDD effect on cell cycle distribution ([4]; efficiently transfected subpopulation expressing Kip1 antisense RNA with GFP, 1 nM): interrupted
observed effects on the cell cycle ([4]; electroporated cells): 1.5-2 fold
progress of the cell cycle ([4]; non-transfected subpopulation of the Kip1 antisense culture, 1 nM): retarded
induction of Kip1 mRNA ([5]; 5 L cells, 4-hour exposure, FIG. 2E): fourfold
breakdown of Kip1 mRNA ([5]; following interruption of transcription by actinomycin D): did not affect
incorporation of 3H-thymidine into the thymocyte DNA ([6]; 2 days of FTOC, 1 nM): 75±7%
% in G2/S ([6]; CD4+/CD8+ thymocytes): 35 ± 10%
% in G2/S ([6]; CD4+/CD8− thymocytes): 24 ± 4%
% in G2/S ([6]; CD4−/CD8+ thymocytes): 32 ± 6%
% in G2/S ([6]; CD4−/CD8− thymocytes): 18 ± 2%
number of cells in the S and G2 phases of the cell cycle ([6]; total thymocyte population, 2 days of FTOC, 1 nM): 24±1%
level of p27Kip1 by Western blot ([7]; 5 L wild-type cells, exposure from 4 to 72 hours, FIG. 2C): raised in every case
upregulation of p27Kip1 ([7]; AhR-poor subclone of 5 L cells (BP8-AhR−)): not possible to observe dioxin-dependent upregulation
induction of p27Kip1 ([7]; BP8 subclone with ectopic expression of the AhR (BP8-AhR+)): induction was restored
induction of Kip1 protein in thymocytes [8]: 3 fold
levels of cyclins D2 and D3 [9]: even raised
levels of cyclins D and E and associated cyclin-dependent kinases (cdks 2 and 4) [9]: not reduced
p18-Ink and p21-Cip1 levels [10]: not noticeably altered
progress of the cell cycle (phosphorylated versus hypophosphorylated Rb protein) [11]: transcription-dependent retardation

C[C@@H]1C[C@@H]([C@H](O)CC2CC(=O)NC(=O)C2)C(=O)[C@@H](C)C1 [cycloheximide]
effect on TCDD induction of Kip1 mRNA ([5]; 30-minute pretreatment, 20 μg/ml, then 4-hour TCDD): had no effect
